Source: PMC10385579, “Design, Synthesis, and Biological Evaluation of Indole-2-carboxamides as Potential Multi-Target Antiproliferative Agents” (Pharmaceuticals, 2023)

Tests used:
[1] = system: breast cancer (MCF-7) cell line; assay: Antiproliferative assay, MCF-7; type: cell-based; conditions: Homo sapiens, MCF7; read-out: Antiproliferative Activity IC50 ± SEM, MCF-7
Procedure: 4.2.1.2. Assay for antiproliferative effect
To explore the antiproliferative potential of compounds propidium iodide fluorescence assay was performed using different cell lines such as Panc-1 (pancreas cancer cell line), MCF-7 (breast cancer cell line), HT-29 (colon cancer cell line) and A-549 (epithelial cancer cell line), respectively.
To calculate the total nuclear DNA, a fluorescent dye (propidium iodide, PI) is used which can attach to the DNA, thus offering a quick and precise technique. PI cannot pass through the cell membrane and its signal intensity can be considered as directly proportional to quantity of cellular
DNA. Cells whose cell membranes are damaged or have changed permeability are counted as dead ones. The assay was performed by seeding the cells of different cell lines at a density of 3000-7500 cells/well (in200μl medium) in culture plates followed by incubation for 24h at 37 °C in humidified 5%CO2/95% air atmospheric conditions. The medium was removed; the compounds were added to the plates at 10 μM concentrations (in 0.1% DMSO) in triplicates, followed by incubation for 48h. DMSO (0.1%) was used as control. After incubation, medium was removed followed by the addition of PI (25 μl, 50μg/mL in water/medium) to each well of the plates. At - 80 °C, the plates were allowed to freeze for 24 h, followed by thawing at 25 °C. A fluorometer (Polar-Star BMG Tech) was used to record the readings at excitation and emission wavelengths of 530 and 620 nm for each well. The percentage cytotoxicity of compounds was calculated using […]
Where ATC= Absorbance of treated cells and AC= Absorbance of control. Erlotinib was used as positive control in the assay.

caspase-3 = assay: Caspase 3 assay in A-549 cells; type: cell-based, human; conditions: for Caspase-3 Conc: untreated control 66 pg/mL
Procedure: Caspases play a crucial function in the induction and completion of apoptosis. Caspase-3 is an essential caspase that cleaves different proteins in cells, resulting in apoptosis. […]
4.2.5. Caspase-3 activation assay
Allow all reagents to reach room temperature before use. Gently mix all liquid reagents prior to use. Determine the number of 8-well strips needed for the assay. Insert these in the frame(s) for current use. Add 100 μl of the Standard Diluent Buffer to the zero standard wells. Well(s) reserved for chromogen blank should be left empty. Add 100 μl of standards and controls or diluted samples to the appropriate microtiter wells. The sample dilution chosen should be optimized for each experimental system. Tap gently on side of plate to mix. Cover wells with plate cover and incubate for 2 hours at room temperature. Thoroughly aspirate or decant solution from wells and discard the liquid, Wash wells 4 times. Pipette 100 μl of Caspase-3 (Active) Detection Antibody solution into each well except the chromogen blank(s). Tap gently on the side of the plate to mix. Cover plate with plate cover and incubate for 1 hour at room temperature. Thoroughly aspirate or decant solution from wells and discard the liquid, Wash wells 4 times. Add 100 μl Anti-Rabbit IgG HRP Working Solution to each well except the chromogen blank(s). Prepare the working dilution as described in Preparing IgG HRP. Cover wells with the plate cover and incubate for 30 minutes at room temperature. Thoroughly aspirate or decant solution from wells and discard the liquid. Wash wells 4 times. Add 100 μl of Stabilized Chromoge n to each well. The liquid in the wells will begin to turn blue. Incubate for 30 minutes at room temperature and in the dark. The incubation time for chromogen substrate is often determined by the microtiter plate reader used. Many plate readers have the capacity to record a maximum optical density (O.D.) of 2.0. The O.D. values should be monitored, and the substrate reaction stopped before the O.D. of the positive wells exceeds the limits of the instrument. The O.D. values at 450 nm can only be read after the Stop Solution has been added to each well. If using a reader that records only to 2.0 O.D., stopping the assay after […]
Add 100 μl of Stop Solution to each well. Tap side of plate gently to mix. The solution in the wells should change from blue to yellow. Read the absorbance of each well at 450 nm having blanked the plate reader against a chromogen blank composed of 100 μl each of Stabilized Chromogen and Stop Solution. Read the plate within 2 hours after adding the Stop Solution. Use a curve fitting software to generate the standard curve. A four-parameter algorithm provides the best standard curve fit. Read the concentrations for unknown samples and controls from the standard curve. Multiply value(s) obtained for sample(s) by the appropriate dilution factor to correct for the dilution in step 3. Samples producing signals greater than that of the highest standard should be diluted in Standard Diluent Buffer and reanalyzed.

VEGFR-2 = VEGFR-2 (Homo sapiens, UniProt P35968); assay: VEGFR-2 inhibitory assay
Sequence of VEGFR-2 (P35968 20-1356): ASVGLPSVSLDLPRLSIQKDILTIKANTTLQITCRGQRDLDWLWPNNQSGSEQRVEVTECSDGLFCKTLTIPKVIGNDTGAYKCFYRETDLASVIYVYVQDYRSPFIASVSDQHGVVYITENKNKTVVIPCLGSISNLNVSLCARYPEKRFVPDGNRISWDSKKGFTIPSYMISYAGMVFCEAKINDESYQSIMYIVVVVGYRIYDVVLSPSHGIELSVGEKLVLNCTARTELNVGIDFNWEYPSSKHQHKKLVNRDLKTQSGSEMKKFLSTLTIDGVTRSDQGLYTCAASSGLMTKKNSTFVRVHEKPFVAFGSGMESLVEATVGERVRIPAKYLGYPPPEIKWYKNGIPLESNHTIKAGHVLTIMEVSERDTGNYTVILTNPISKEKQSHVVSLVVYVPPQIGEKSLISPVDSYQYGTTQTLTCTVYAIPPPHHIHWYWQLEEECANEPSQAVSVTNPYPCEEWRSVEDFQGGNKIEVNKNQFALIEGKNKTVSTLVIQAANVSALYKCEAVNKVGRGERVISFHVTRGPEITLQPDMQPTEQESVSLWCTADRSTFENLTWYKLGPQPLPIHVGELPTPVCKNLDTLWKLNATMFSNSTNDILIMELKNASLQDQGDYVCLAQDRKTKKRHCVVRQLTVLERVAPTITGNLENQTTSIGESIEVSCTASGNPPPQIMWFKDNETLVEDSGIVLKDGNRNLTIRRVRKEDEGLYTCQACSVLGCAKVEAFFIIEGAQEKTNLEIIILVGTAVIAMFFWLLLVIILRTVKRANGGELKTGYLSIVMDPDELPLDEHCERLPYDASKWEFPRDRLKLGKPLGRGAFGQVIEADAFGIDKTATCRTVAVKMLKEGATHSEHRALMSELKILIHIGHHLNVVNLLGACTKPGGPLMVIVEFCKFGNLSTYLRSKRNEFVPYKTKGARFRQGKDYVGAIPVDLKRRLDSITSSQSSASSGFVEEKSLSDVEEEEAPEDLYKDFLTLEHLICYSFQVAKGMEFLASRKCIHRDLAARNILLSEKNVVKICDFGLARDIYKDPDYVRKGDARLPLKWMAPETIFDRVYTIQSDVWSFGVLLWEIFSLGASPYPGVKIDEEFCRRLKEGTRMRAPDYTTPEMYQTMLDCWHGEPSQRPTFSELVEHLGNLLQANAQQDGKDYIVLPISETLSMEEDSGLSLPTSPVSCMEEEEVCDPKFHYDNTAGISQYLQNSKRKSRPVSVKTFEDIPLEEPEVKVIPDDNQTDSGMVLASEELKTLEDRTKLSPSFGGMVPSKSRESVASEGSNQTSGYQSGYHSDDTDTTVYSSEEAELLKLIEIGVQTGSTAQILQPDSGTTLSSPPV
Procedure: Prepare all the solutions using autoclaved, deionized water and analytical grade reagents.
and store all the reagents at room temperature (unless indicated otherwise).
solution, add 5 mL ultra-pure water; 1×Kinase Assay Buffer: add 25 mL HEPES solution (1 M),
water, adjust pH to 7.5 and constant volume to 500 mL using ultrapure water; 4×Stop solution (40
mM): Mix 0.8 mL of the foregoing EDTA solution, 1 mL 10×Detection Buffer and 8.2 mL ultra-
pure water; 1×Detection Buffer: Mix 1 mL 10×Detection Buffer with 9 mL water; 4×VEGFR
μM) was added to 624 μL 1×Kinase Assay Buffer and mixed; 4×ULight™-labeled JAK1
concentration 5 μM) was added to 576 μL 1×Kinase Assay Buffer and mixed; 4×ATP Solution
2×substrate/ATP Mix: 560 μL foregoing 4×ULight™-labeled JAK1 and 560 μL 4×ATP solution
and mixed (prepared before use). The assays used an ULight-labeled peptide substrate and a
Europium-W1024-labeled antiphosphotyrosine antibody. The VEGFR-2 was purchased from
Carna Biosciences, Inc. (New York, USA). The 384-well plates were obtained from PerkinElmer.
5 μL 2×VEGFR-2 kinase solution (0.5 nM)
was added to 384-well plates homogeneous mixing and pre-reaction at room temperature for 30 min. Next, 2.5 μL 4×Ultra ULightTM-JAK-1(Tyr1023) Peptide (200 nM)/ATP (40 μM) was added to the corresponding wells of a 384-well plate. Negative control: 2.5 μL/well 4×substrate/ATP mixture and 7.5 μL 1×kinase assay buffer in 384-well plate well. Positive control:
μL/well 2×VEGFR-2 kinase solution was added to the 384-well plate, The final concentration of DMSO in the mixing system was 4%. After incubation at room temperature and dark for 60 min, 5 μL 4×stop solution was added to corresponding wells to react for 5 min and then 5 μL 4×detection mix was added to the corresponding wells of a 384-well plate. The mixture was centrifugally mixed and stayed for 60 min at room temperature for color development. The plate was read using a Envision plate reader. The inhibition rate (%) = (positive well reading-compound well reading)/(positive well reading-negative well reading)×100. The corresponding IC50 values were calculated using GraphPad Prism 5.0.

Which results are given for `CO/C=C/c1c(C(=O)NCC(c2ccccc2)c2c(-c3ccccc3)[nH]c3ccccc23)[nH]c2ccc(Cl)cc12` (stereo not shown) [Compound Vg, (E)-5-Chloro-3-(2-methoxyvinyl)-N-(2-phenyl-2-(2-phenyl-1H-indol-3-yl)ethyl)-1H-indole-2-carboxamide]?
IC50 [1]: 33 ± 3 nM; Caspase-3 Conc (caspase-3): 528 ± 5 pg/mL; Caspase-3 Fold Change (caspase-3; vs untreated control): ~8; IC50 (VEGFR-2): 1.6 ± 0.1 nM

Which IC50 [1] does the source give for `O=C(NCC(c1ccccc1)c1c(-c2ccccc2)[nH]c2ccccc12)c1cc2cc(Cl)ccc2[nH]1` (stereo not shown) [Compound Va, 5-Chloro-N-(2-phenyl-2-(2-phenyl-1H-indol-3-yl)ethyl)-1H-indole-2-carboxamide] here?
The IC50 was 28 ± 2 nM.

And the “Caspase-3 Conc” value (caspase-3)?
The value was 726 ± 6 pg/mL.

And the IC50 (VEGFR-2)?
Its IC50 is 2.15 ± 0.2 nM.
